The first experiment has as its system MCH receptors. Briefly: MCH receptor activity class (method not given).
Conditions: not given
Consider `Cc1cc(N(C)C)nc(N[C@H]2CC[C@@H](C(=O)NCc3ccc(Cl)cc3Cl)CC2)n1` [Example 2572, cis-N-(2,4-dichlorobenzyl)-4-{[4-(dimethylamino)-6-methylpyrimidin-2-yl]amino}cyclohexanecarboxamide], for which the class stood at 1.

Still in this experiment, the particulars now being: MCH receptor activity class 1-3 (percent of control at 10^-7 M or IC50).
With `Cc1ccc(NC(=O)NC[C@H]2CC[C@@H](Nc3nccc(N(C)C)n3)CC2)cc1` [compound 2441], the class is given as 3 (Class 3 The value of percent of control at 10^−7 M was more than 60% or the value of IC50 was more than 200 nM.). Same read-out and setting: with `CN(C)c1nc(N[C@H]2CC[C@@H](CNC(=O)NC(c3ccccc3)c3ccccc3)CC2)nc2c1CCCC2` [compound 2481] the figure was 3 (Class 3 The value of percent of control at 10^−7 M was more than 60% or the value of IC50 was more than 200 nM.); with `CN(C)c1ccnc(N[C@H]2CC[C@@H](CNC(=O)Nc3ccccc3C(C)(C)C)CC2)n1` [compound 2430, N-(2-tert-butylphenyl)-N′-[(cis-4-{[4-(dimethylamino)pyrimidin-2-yl]amino}cyclohexyl)methyl]urea], 1 (Class 1: The value of percent of control at 10^−7 M was less than 40% or the value of IC50 was less than 50 nM.). Still for that read-out and setting: the value for `CN(C)c1ccnc(N[C@H]2CC[C@@H](CNC(=O)Nc3c(F)cc(Br)cc3F)CC2)n1` [compound 2432] was 1 (Class 1: The value of percent of control at 10^−7 M was less than 40% or the value of IC50 was less than 50 nM.); that for `C[C@@H](NC(=S)N[C@H]1CC[C@@H](Nc2cc(N(C)C)c3ccccc3n2)CC1)c1ccccc1` [compound 2298] was 3 (Class 3 The value of percent of control at 10^−7 M was more than 60% or the value of IC50 was more than 200 nM.); that for `Cc1ccc([N+](=O)[O-])c(NC(=O)NC[C@H]2CC[C@@H](Nc3nccc(N(C)C)n3)CC2)c1C` [compound 2443] was 1 (Class 1: The value of percent of control at 10^−7 M was less than 40% or the value of IC50 was less than 50 nM.).

The experiment is the same for the next values; noted with them: MCH receptor; class by percent of control at 10^-7 M or IC50.
In the case of `CN(C)c1nc(N[C@H]2CC[C@@H](NC(=S)Nc3ccc(-c4nc5c6ccccc6c6ccccc6c5o4)cc3)CC2)nc2c1CCCC2` [compound 2075], the class was 3 (Class 3 The value of percent of control at 10^−7 M was more than 60% or the value of IC50 was more than 200 nM.). The same measure, in the same setting: with `CN(C)c1cc(N[C@H]2CC[C@@H](CNC(=O)Cc3ccccc3Br)CC2)nc2ccccc12` [compound 207] the figure was 3 (Class 3 The value of percent of control at 10^−7 M was more than 60% or the value of IC50 was more than 200 nM.). Take `CN(C)c1cc(N[C@H]2CC[C@@H](NC(=O)c3cccc4ccccc34)CC2)nc2ccccc12` [compound 109]: the class is listed as 3 (Class 3 The value of percent of control at 10^−7 M was more than 60% or the value of IC50 was more than 200 nM.). Consider `CN(C)c1cc(NC2CCC(CNC(=O)OCc3ccccc3)CC2)nc2ccccc12` (stereo not shown) [compound 182], for which the class is 3 (Class 3 The value of percent of control at 10^−7 M was more than 60% or the value of IC50 was more than 200 nM.).

The same experiment, now with this note: activity class 1-3: percent of control at 10^-7 M or IC50.
As for `Cc1cccc(Cl)c1NC(=O)N[C@H]1CC[C@@H](Nc2nc3c(c(N(C)C)n2)CCCC3)CC1` [compound 1674], the class is reported as 3 (Class 3 The value of percent of control at 10^−7 M was more than 60% or the value of IC50 was more than 200 nM.). On the same count and under the same terms, the value for `CCc1cccc(C)c1NC(=O)N[C@H]1CC[C@@H](Nc2nc3c(c(N(C)C)n2)CCCC3)CC1` [compound 1662] was 1 (Class 1: The value of percent of control at 10^−7 M was less than 40% or the value of IC50 was less than 50 nM.).

Staying with this experiment, now noted: activity class per percent of control at 10^-7 M or IC50.
`CN(C)c1nc(N[C@H]2CC[C@@H](CNC(=O)c3ccc(Br)s3)CC2)nc2c1CCCC2` [compound 1061]: the class is on record as 3 (Class 3 The value of percent of control at 10^−7 M was more than 60% or the value of IC50 was more than 200 nM.).

Staying with this experiment, now noted: class 1-3 by percent of control at 10^-7 M or IC50.
As for `CN(C)c1nc(N[C@H]2CC[C@@H](NC(=O)/C=C/c3ccccc3)CC2)nc2c1CCCC2` [compound 462], the class was 3 (Class 3 The value of percent of control at 10^−7 M was more than 60% or the value of IC50 was more than 200 nM.).

In the case of `CN(C)c1nc(N[C@H]2CC[C@@H](NC(=O)c3ccc(Cl)c(Cl)c3)CC2)nc2c1CCCC2` [compound 467, 3,4-dichloro-N-(cis-4-{[4-(dimethylamino)-5,6,7,8-tetrahydroquinazolin-2-yl]amino}cyclohexyl)benzamide], the class is 1 (Class 1: The value of percent of control at 10^−7 M was less than 40% or the value of IC50 was less than 50 nM.). Still for that read-out and setting: the value for `CN(C)c1nc(N[C@H]2CC[C@@H](NC(=O)CSc3ccccc3)CC2)nc2c1CCCC2` [compound 499] was 3 (Class 3 The value of percent of control at 10^−7 M was more than 60% or the value of IC50 was more than 200 nM.).

Staying with this experiment, now noted: class by percent of control at 10^-7 M or IC50.
For `COc1cccc(OC)c1CN[C@H]1CC[C@@H](Nc2nccc(N(C)C)n2)CC1` [compound 1205], the class is recorded as 3 (Class 3 The value of percent of control at 10^−7 M was more than 60% or the value of IC50 was more than 200 nM.).

On to `CN(C)c1ccnc(N[C@H]2CC[C@@H](NC(=O)Nc3c(F)cc(Br)cc3F)CC2)n1` [compound 2206], for which the class is listed as 3 (Class 3 The value of percent of control at 10^−7 M was more than 60% or the value of IC50 was more than 200 nM.). As to `CN(C)c1cc(N[C@H]2CC[C@@H](NC(=O)c3ccc(-c4ccc(Cl)cc4)o3)CC2)nc2ccccc12` [compound 697], the class was 3 (Class 3 The value of percent of control at 10^−7 M was more than 60% or the value of IC50 was more than 200 nM.). Still for that read-out and setting: with `CN(C)c1nc(N[C@H]2CC[C@@H](NCc3ccc(F)c(Cl)c3)CC2)nc2c1CCCC2` [compound 1363] the figure was 3 (Class 3 The value of percent of control at 10^−7 M was more than 60% or the value of IC50 was more than 200 nM.); with `CN(C)c1ccnc(N[C@H]2CC[C@@H](NC(=O)Nc3ccc(F)cc3)CC2)n1` [compound 2184], 3 (Class 3 The value of percent of control at 10^−7 M was more than 60% or the value of IC50 was more than 200 nM.); with `CN(C)c1ccnc(N[C@H]2CC[C@@H](CNCc3ccc(O)cc3)CC2)n1` [compound 1275], 3 (Class 3 The value of percent of control at 10^−7 M was more than 60% or the value of IC50 was more than 200 nM.). On the same count and under the same terms, with `CN(C)c1cc(N[C@H]2CC[C@@H](NCCc3c(-c4ccccc4)[nH]c4ccccc34)CC2)nc2ccccc12` [compound 1459] the figure was 2 (Class 2: The value of percent of control at 10^−7 M was from 40% to 60% or the value of IC′50 was from 50 nM to 200 nM.); with `C/C(=C\c1ccccc1)C(=O)NC[C@H]1CC[C@@H](Nc2nc3c(c(N(C)C)n2)CCCC3)CC1` [compound 649], 3 (Class 3 The value of percent of control at 10^−7 M was more than 60% or the value of IC50 was more than 200 nM.); with `COc1cc(NC(=S)N[C@H]2CC[C@@H](Nc3nc4c(c(N(C)C)n3)CCCC4)CC2)cc(OC)c1OC` [compound 1745], 1 (Class 1: The value of percent of control at 10^−7 M was less than 40% or the value of IC50 was less than 50 nM.). Still for that read-out and setting: the value for `CN(C)c1cc(N[C@H]2CC[C@@H](CNCC=C(c3ccccc3)c3ccccc3)CC2)nc2ccccc12` [compound 1158] was 1 (Class 1: The value of percent of control at 10^−7 M was less than 40% or the value of IC50 was less than 50 nM.); that for `COc1cccc(CNC[C@H]2CC[C@@H](Nc3nccc(N(C)C)n3)CC2)c1O` [compound 1317] was 3 (Class 3 The value of percent of control at 10^−7 M was more than 60% or the value of IC50 was more than 200 nM.).

Regarding `Cc1cc(C(=O)N[C@H]2CC[C@@H](Nc3nccc(N(C)C)n3)CC2)cc(C)c1[N+](=O)[O-]` [compound 913, N-(cis-4-{[4-(dimethylamino)pyrimidin-2-yl]amino}cyclohexyl)-3,5-dimethyl-4-nitrobenzamide], the class is on record as 2 (Class 2: The value of percent of control at 10^−7 M was from 40% to 60% or the value of IC′50 was from 50 nM to 200 nM.). Consider `COc1ccc(CNC[C@H]2CC[C@@H](Nc3nc4c(c(N(C)C)n3)CCCC4)CC2)c2ccccc12` [compound 1368], for which the class was 2 (Class 2: The value of percent of control at 10^−7 M was from 40% to 60% or the value of IC′50 was from 50 nM to 200 nM.). With `CC(C)c1cccc(C(C)C)c1NC(=O)NC[C@H]1CC[C@@H](Nc2nc3c(c(N(C)C)n2)CCCC3)CC1` [compound 2488, N-(2,6-diisopropylphenyl)-N′-[(cis-4-{[4-(dimethylamino)-5,6,7,8-tetrahydroquinazolin-2-yl]amino}cyclohexyl)methyl]urea], the class was 2 (Class 2: The value of percent of control at 10^−7 M was from 40% to 60% or the value of IC′50 was from 50 nM to 200 nM.).

Consider `COc1ccc(OC)c(CNC[C@H]2CC[C@@H](Nc3nccc(N(C)C)n3)CC2)c1` [compound 1246], for which the class is reported as 3 (Class 3 The value of percent of control at 10^−7 M was more than 60% or the value of IC50 was more than 200 nM.).

With `CN(C)c1cc(N[C@H]2CC[C@@H](NC(=O)Cc3sc(-c4ccccc4)nc3-c3ccc(Cl)cc3)CC2)nc2ccccc12` [compound 761], the class is 3 (Class 3 The value of percent of control at 10^−7 M was more than 60% or the value of IC50 was more than 200 nM.). The same measure, in the same setting: the value for `COc1cccc(OC)c1CNC[C@H]1CC[C@@H](Nc2nccc(N(C)C)n2)CC1` [compound 1243] was 2 (Class 2: The value of percent of control at 10^−7 M was from 40% to 60% or the value of IC′50 was from 50 nM to 200 nM.); that for `COc1cc(CNC[C@H]2CC[C@@H](Nc3nccc(N(C)C)n3)CC2)cc(OC)c1` [compound 1259] was 3 (Class 3 The value of percent of control at 10^−7 M was more than 60% or the value of IC50 was more than 200 nM.).

Still in this experiment, the particulars now being: class by percent of control at 10^−7 M or IC50.
Turning to `Cc1cnc(N[C@H]2CC[C@@H](NC(=O)CN(C)c3ccc(Cl)cc3)CC2)nc1N(C)C` [compound 2945], the class is 1 (Class 1: The value of percent of control at 10^−7 M was less than 40% or the value of IC50 was less than 50 nM.). For the molecule `Cc1cnc(N[C@H]2CC[C@@H](CNC(=O)c3ccc4c(c3)OC(F)(F)O4)CC2)nc1N(C)C` [compound 2708], the class was 2 (Class 2: The value of percent of control at 10^−7 M was from 40% to 60% or the value of IC′50 was from 50 nM to 200 nM.).

The values are drawn from patent publication US20050197350A1, “Novel quinoline, tetrahydroquinazoline, and pyrimidine derivatives and methods of treatment related to the use thereof” (TAISHO PHARMACEUTICAL CO., LTD., priority 2003, published 2005).
